Measured values from PMC3909880 (Nature communications, 2013).
≈ marks a conversion by molar mass, not a printed value.

Key:
M. tuberculosis H37Rv [1] = assay: microbe, parasite or virus in culture; assay type: cell-based, Mycobacterium tuberculosis; conditions: for MIC: Mycobacterium tuberculosis, H37RV, read-out: MIC for H37Rv; for MIC for H37Rv: M. tuberculosis H37Rv parental strain
M. tuberculosis H37Rv [2] = assay type: in vivo, Mycobacterium tuberculosis; conditions: 10 mg/kg oral gavage daily (5 days per week), BALB/c mice
[3] = tested on: M. tuberculosis strains H37Rv, V4207, V2475, KZN494, TF274, R506; conditions: MDR strains V2475 and KZN494; cited from earlier work

| Compound | MIC (M. tuberculosis H37Rv [1]) | also measured |
| --- | --- | --- |
| C[C@H]1COc2c(N3CCN(C)CC3)c(F)cc3c(=O)c(C(=O)O)cn1c23 [Levofloxacin] | 0.25 µg/mL (≈ 0.692 µM) | – |
| CC(C)=CCC/C(C)=C/CNCCNC1C2CC3CC(C2)CC1C3 (centres unmarked) [SQ109] | 0.25 µg/mL (≈ 0.756 µM) | – |
| COc1c(N2C[C@@H]3CCCN[C@@H]3C2)c(F)cc2c(=O)c(C(=O)O)cn(C3CC3)c12 [Moxifloxacin] | 0.0625 to 0.125 µg/mL (≈ 0.156 to 0.311 µM) | – |
| NCC[C@H](O)C(=O)N[C@@H]1C[C@H](N)[C@@H](O[C@H]2O[C@H](CN)[C@@H](O)[C@H](O)[C@H]2O)[C@H](O)[C@H]1O[C@H]1O[C@H](CO)[C@@H](O)[C@H](N)[C@H]1O [Amikacin] | 1 µg/mL (≈ 1.71 µM) | – |
| Capreomycin | – | MIC for H37Rv (M. tuberculosis H37Rv [1]): 1 µg/mL |
| CC[C@@H](CO)NCCN[C@@H](CC)CO [Ethambutol] | 1 µg/mL (≈ 4.89 µM) | – |
| NNC(=O)c1ccncc1 [Isoniazid] | 0.04 µg/mL (≈ 0.292 µM) | Mean lung CFU counts (standard deviation), Day 7 (M. tuberculosis H37Rv [2]): 5.508 (0.124) log10 CFU/lung; Mean lung CFU counts (standard deviation), Day 14 (M. tuberculosis H37Rv [2]): 5.266 (0.089) log10 CFU/lung; Mean lung CFU counts (standard deviation), Day 28 (M. tuberculosis H37Rv [2]): 4.561 (0.088) log10 CFU/lung; Susceptibility of the MDR strains [3]: resistant |
| CO[C@H]1/C=C/O[C@@]2(C)Oc3c(C)c(O)c4c(O)c(c(/C=N/N5CCN(C)CC5)c(O)c4c3C2=O)NC(=O)/C(C)=C\C=C\[C@H](C)[C@H](O)[C@@H](C)[C@@H](O)[C@@H](C)[C@H](OC(C)=O)[C@@H]1C [Rifampin] | 0.125 µg/mL (≈ 0.152 µM) | Susceptibility of the MDR strains [3]: resistant |
| NC[C@H]1O[C@H](O[C@H]2[C@H](O)[C@@H](O[C@H]3O[C@H](CO)[C@@H](O)[C@H](N)[C@H]3O)[C@H](N)C[C@@H]2N)[C@H](O)[C@@H](O)[C@@H]1O [Kanamycin] | – | MIC for H37Rv (M. tuberculosis H37Rv [1]): 2 µg/mL |
